Laboratory results as given in PubChem BioAssay AID330 (DTP/NCI, 2004).
Where “and” joins values, the source holds several entries; their conditions need not be identical. Equal entries are not always repeated. Inconclusive results and toxic doses are left out.

Test system: P388 leukemia ip, CD2F1 mice, survival T/C
Experiment: NCI In Vivo Anticancer Drug Screen. Data for tumor model P388 Leukemia (intraperitoneal) in CD2F1 (CDF1) mice
Conditions: endpoint: median survival time, higher = longer survival
Summary of the method: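 Mice carrying the transplanted tumor received test compound or vehicle. Survival was recorded in each group, and the value is the treated-group measurement divided by that of the vehicle-treated control group.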

[1] = dose: 50.0 mg/kg/injection, schedule: Q01DX005 (ip), vehicle: saline with Tween-80
[2] = dose: 100.0 mg/kg/injection, schedule: Q01DX005 (ip), vehicle: saline with Tween-80
[3] = dose: 200.0 mg/kg/injection, schedule: Q01DX005 (ip), vehicle: saline with Tween-80
[4] = dose: 25.0 mg/kg/injection, schedule: Q01DX009 (ip), vehicle: Klucel (hydroxypropylcellulose) (HPC)
[5] = dose: 50.0 mg/kg/injection, schedule: Q01DX009 (ip), vehicle: Klucel (hydroxypropylcellulose) (HPC)
[6] = dose: 50.0 mg/kg/injection, schedule: Q01DX009 (ip), vehicle: saline with Tween-80
[7] = dose: 100.0 mg/kg/injection, schedule: Q01DX009 (ip), vehicle: saline with Tween-80
[8] = dose: 200.0 mg/kg/injection, schedule: Q01DX009 (ip), vehicle: saline with Tween-80
[9] = dose: 50.0 mg/kg/injection, schedule: Q01DX005 (ip), vehicle: saline
[10] = dose: 100.0 mg/kg/injection, schedule: Q01DX001 (ip), vehicle: Klucel (hydroxypropylcellulose) (HPC)
[11] = dose: 200.0 mg/kg/injection, schedule: Q01DX001 (ip), vehicle: Klucel (hydroxypropylcellulose) (HPC)
[12] = dose: 400.0 mg/kg/injection, schedule: Q01DX001 (ip), vehicle: Klucel (hydroxypropylcellulose) (HPC)
[13] = dose: 50.0 mg/kg/injection, schedule: Q01DX009 (ip), vehicle: saline
[14] = dose: 100.0 mg/kg/injection, schedule: Q01DX009 (ip), vehicle: saline
[15] = dose: 200.0 mg/kg/injection, schedule: Q01DX009 (ip), vehicle: saline

CO/C=C1\OC(=O)C=C1OC
T/C [1]: 101 % of control | T/C [2]: 108 % of control | T/C [3]: 114 % of control

Cc1c([N+](=O)[O-])oc2c1C(=O)N([N+](=O)[O-])CCC2
T/C (dose: 100.0 mg/kg/injection, schedule: Q04DX003 (ip), vehicle: Klucel (hydroxypropylcellulose) (HPC)): 114 % of control

CC(=O)OC(C(=O)N1CC1)C(OC(C)=O)C(OC(C)=O)C(OC(C)=O)C(=O)N1CC1 (stereo unspecified)
T/C [4]: 217 % of control | T/C [5]: 237 % of control and 255 % of control | T/C (dose: 100.0 mg/kg/injection, schedule: Q01DX009 (ip), vehicle: Klucel (hydroxypropylcellulose) (HPC)): 88 % of control

CCCCCCC(=O)/C=C/c1cccc(OCOC)c1
T/C [6]: 87 % of control | T/C [7]: 113 % of control | T/C [8]: 103 % of control

CCOc1ccn(C2C=CC(=O)O2)c(=O)n1 (stereo unspecified)
T/C (dose: 6.25 mg/kg/injection, schedule: Q01DX005 (ip), vehicle: saline): 102 % of control and 105 % of control | T/C (dose: 12.5 mg/kg/injection, schedule: Q01DX005 (ip), vehicle: saline): 110 % of control and 112 % of control | T/C (dose: 25.0 mg/kg/injection, schedule: Q01DX005 (ip), vehicle: saline): 111 % of control and 118 % of control | T/C [9]: 118 % of control and 120 % of control

COc1ccc(CCNC(=O)CC2CCN(Cc3ccccc3)CC2)cc1OC
T/C (dose: 50.0 mg/kg/injection, schedule: Q01DX005 (ip), vehicle: Klucel (hydroxypropylcellulose) (HPC)): 100 % of control | T/C (dose: 100.0 mg/kg/injection, schedule: Q01DX005 (ip), vehicle: Klucel (hydroxypropylcellulose) (HPC)): 100 % of control | T/C (dose: 200.0 mg/kg/injection, schedule: Q01DX005 (ip), vehicle: Klucel (hydroxypropylcellulose) (HPC)): 95 % of control

NNS(=O)(=O)c1cccc(S(=O)(=O)NN)c1
T/C (dose: 12.5 mg/kg/injection, schedule: Q01DX009 (ip), vehicle: other): 96 % of control | T/C (dose: 25.0 mg/kg/injection, schedule: Q01DX009 (ip), vehicle: other): 96 % of control | T/C (dose: 50.0 mg/kg/injection, schedule: Q01DX009 (ip), vehicle: other): 99 % of control

CSc1ncc(Br)c(C(=O)O)n1
T/C (dose: 100.0 mg/kg/injection, schedule: Q04DX003 (ip), vehicle: saline with Tween-80): 100 % of control | T/C (dose: 200.0 mg/kg/injection, schedule: Q04DX003 (ip), vehicle: saline with Tween-80): 100 % of control | T/C (dose: 400.0 mg/kg/injection, schedule: Q04DX003 (ip), vehicle: saline with Tween-80): 100 % of control

CNC(=O)OCc1c(COC(=O)NC)c(-c2ccc(Cl)cc2Cl)n2c1CCC2
T/C (dose: 100.0 mg/kg/injection, schedule: Q01DX009 (ip), vehicle: distilled water + Tween-80): 164 % of control

COCCCN=C(N)c1ccc(NC(=O)c2ccc(C(=O)Nc3ccc(C(N)=NCCCOC)cc3)cc2)cc1
T/C (dose: 1.65 mg/kg/injection, schedule: Q01DX009 (ip), vehicle: saline with Tween-80): 154 % of control | T/C (dose: 2.5 mg/kg/injection, schedule: Q01DX009 (ip), vehicle: saline with Tween-80): 154 % of control | T/C (dose: 3.75 mg/kg/injection, schedule: Q01DX009 (ip), vehicle: saline with Tween-80): 195 % of control | T/C (dose: 5.63 mg/kg/injection, schedule: Q01DX009 (ip), vehicle: saline with Tween-80): 227 % of control | T/C (dose: 6.6 mg/kg/injection, schedule: Q04DX003 (ip), vehicle: saline with Tween-80): 155 % of control | T/C (dose: 10.0 mg/kg/injection, schedule: Q04DX003 (ip), vehicle: saline with Tween-80): 150 % of control | T/C (dose: 12.5 mg/kg/injection, schedule: Q04DX003 (ip), vehicle: saline with Tween-80): 177 % of control | T/C (dose: 15.0 mg/kg/injection, schedule: Q04DX003 (ip), vehicle: saline with Tween-80): 200 % of control | T/C (dose: 25.0 mg/kg/injection, schedule: Q04DX003 (ip), vehicle: saline with Tween-80): 200 % of control | T/C (dose: 50.0 mg/kg/injection, schedule: Q04DX003 (ip), vehicle: saline with Tween-80): 90 % of control

CCOC(=O)NOP(=O)(N1CC1(C)C)N1CC1(C)C (stereo unspecified)
T/C (dose: 62.5 mg/kg/injection, schedule: Q01DX001 (ip), vehicle: saline + alcohol): 107 % of control | T/C (dose: 125.0 mg/kg/injection, schedule: Q01DX001 (ip), vehicle: saline + alcohol): 117 % of control | T/C (dose: 250.0 mg/kg/injection, schedule: Q01DX001 (ip), vehicle: other): 150 % of control | T/C (dose: 250.0 mg/kg/injection, schedule: Q01DX001 (ip), vehicle: saline + alcohol): 120 % of control | T/C (dose: 500.0 mg/kg/injection, schedule: Q01DX001 (ip), vehicle: other): 163 % of control | T/C (dose: 500.0 mg/kg/injection, schedule: Q01DX001 (ip), vehicle: saline + alcohol): 150 % of control

COC(=O)c1cc(O)c2c(c1C(=O)OC)C[C@H]1[C@@H]3CC=C4C[C@@H](O)CC[C@]4(C)[C@H]3CC[C@]21C
T/C [1]: 97 % of control | T/C [2]: 87 % of control | T/C [3]: 87 % of control

C=CCCC1CC2CCCCN2O1 (stereo unspecified)
T/C (dose: 61.25 mg/kg/injection, schedule: Q01DX009 (ip), vehicle: saline): 115 % of control | T/C (dose: 122.5 mg/kg/injection, schedule: Q01DX009 (ip), vehicle: saline): 103 % of control | T/C (dose: 245.0 mg/kg/injection, schedule: Q01DX009 (ip), vehicle: saline): 100 % of control

C[n+]1ccc(C[n+]2ccccc2)c2ccccc21
T/C [9]: 104 % of control | T/C (dose: 100.0 mg/kg/injection, schedule: Q01DX005 (ip), vehicle: saline): 100 % of control | T/C (dose: 200.0 mg/kg/injection, schedule: Q01DX005 (ip), vehicle: saline): 96 % of control

O=C(CCc1cc2[nH]c1c(-c1ccccc1)c1nc(c(-c3ccccc3)c3ccc([nH]3)c(-c3ccccc3)c3nc(c2-c2ccccc2)C=C3)C=C1)NCCCn1ccnc1
T/C (dose: 50.0 mg/kg/injection, schedule: Q01DX001 (ip), vehicle: Klucel (hydroxypropylcellulose) (HPC)): 99 % of control | T/C [10]: 91 % of control | T/C [11]: 91 % of control | T/C [12]: 96 % of control

O=C(Nc1cccc(NC(=O)Nc2cc(C(F)(F)F)ccc2Cl)c1)Nc1cc(C(F)(F)F)ccc1Cl
T/C (dose: 60.0 mg/kg/injection, schedule: Q01DX005 (ip), vehicle: Klucel (hydroxypropylcellulose) (HPC)): 89 % of control | T/C (dose: 120.0 mg/kg/injection, schedule: Q01DX005 (ip), vehicle: Klucel (hydroxypropylcellulose) (HPC)): 91 % of control | T/C (dose: 240.0 mg/kg/injection, schedule: Q01DX005 (ip), vehicle: Klucel (hydroxypropylcellulose) (HPC)): 100 % of control

CC(N)C1CCC2C3CC=C4CC(N)CCC4(C)C3CCC12C (stereo unspecified)
T/C (dose: 10.0 mg/kg/injection, schedule: Q01DX009 (ip), vehicle: saline with Tween-80): 112 % of control | T/C (dose: 20.0 mg/kg/injection, schedule: Q01DX009 (ip), vehicle: saline with Tween-80): 94 % of control

S=c1nnn(C2CCCN2)[nH]1 (stereo unspecified)
T/C [10]: 100 % of control | T/C [11]: 97 % of control | T/C [12]: 100 % of control

CC1CC(C)(C)N=C(Cc2ccccc2)O1 (stereo unspecified)
T/C [6]: 100 % of control | T/C [7]: 101 % of control | T/C [8]: 89 % of control

COC(=O)C(=Cc1ccc(OC)cc1)C(=O)OC
T/C [13]: 95 % of control | T/C [14]: 95 % of control | T/C [15]: 92 % of control

CC(=O)NC(Cc1cccs1)C(=O)O (stereo unspecified)
T/C [13]: 93 % of control | T/C [14]: 101 % of control | T/C [15]: 101 % of control

CCOC(=O)N/N=C/c1ccc(N(C)CCC#N)cc1
T/C (dose: 6.25 mg/kg/injection, schedule: Q01DX009 (ip), vehicle: Klucel (hydroxypropylcellulose) (HPC)): 90 % of control | T/C (dose: 12.5 mg/kg/injection, schedule: Q01DX009 (ip), vehicle: Klucel (hydroxypropylcellulose) (HPC)): 100 % of control | T/C [4]: 97 % of control | T/C [5]: 88 % of control and 89 % of control | T/C (dose: 200.0 mg/kg/injection, schedule: Q01DX009 (ip), vehicle: Klucel (hydroxypropylcellulose) (HPC)): 90 % of control

CC(C)(C)C(=O)CP(=O)(O)O
T/C [13]: 95 % of control and 100 % of control | T/C [14]: 104 % of control and 97 % of control | T/C [15]: 95 % of control and 101 % of control

Cc1nnc(NC(=O)c2cc(=O)c3ccccc3o2)s1
T/C (dose: 100.0 mg/kg/injection, schedule: Q04DX002 (ip), vehicle: saline with Tween-80): 99 % of control | T/C (dose: 200.0 mg/kg/injection, schedule: Q04DX002 (ip), vehicle: saline with Tween-80): 94 % of control | T/C (dose: 400.0 mg/kg/injection, schedule: Q04DX002 (ip), vehicle: saline with Tween-80): 93 % of control
